Measured values from ChEMBL document CHEMBL3400120, “Design, synthesis and biological evaluation of tasiamide B derivatives as BACE1 inhibitors” (Bioorg Med Chem, 2015).
Activity calls are given as the source filed them. The rule behind the calls is not given here. Numbered stars: 1 amine (or outer) side, 2 acyl side, 3 side chain; on linkers, the order of the positions; unused ones are H or OH. Square brackets hold non-standard residues; d marks the D form. Peptide text beside a SMILES is read from it. * marks the point of attachment. Ahppa(3S,4S) = O=C(C[C@H](O)[C@H](Cc1ccccc1)N[*:1])[*:2]; dNMeF = CN[C@H](Cc1ccccc1)C(=O)O; NMeQ = CN[C@@H](CCC(N)=O)C(=O)O; Cbz = O=C(OCc1ccccc1)*; Lac = C[C@H](O)C(=O)O

Legend:
Beta-secretase 1 [1] = molecular target: T1, Beta-secretase 1 (Homo sapiens, UniProt P56817); assay: Inhibition of BACE1 (unknown origin) at 10 uM after 90 mins by fluorescence assay
Beta-secretase 1 [2] = molecular target: T1, Beta-secretase 1; assay: Inhibition of BACE1 (unknown origin) after 90 mins by fluorescence assay

T1 sequence (P56817 whole entry): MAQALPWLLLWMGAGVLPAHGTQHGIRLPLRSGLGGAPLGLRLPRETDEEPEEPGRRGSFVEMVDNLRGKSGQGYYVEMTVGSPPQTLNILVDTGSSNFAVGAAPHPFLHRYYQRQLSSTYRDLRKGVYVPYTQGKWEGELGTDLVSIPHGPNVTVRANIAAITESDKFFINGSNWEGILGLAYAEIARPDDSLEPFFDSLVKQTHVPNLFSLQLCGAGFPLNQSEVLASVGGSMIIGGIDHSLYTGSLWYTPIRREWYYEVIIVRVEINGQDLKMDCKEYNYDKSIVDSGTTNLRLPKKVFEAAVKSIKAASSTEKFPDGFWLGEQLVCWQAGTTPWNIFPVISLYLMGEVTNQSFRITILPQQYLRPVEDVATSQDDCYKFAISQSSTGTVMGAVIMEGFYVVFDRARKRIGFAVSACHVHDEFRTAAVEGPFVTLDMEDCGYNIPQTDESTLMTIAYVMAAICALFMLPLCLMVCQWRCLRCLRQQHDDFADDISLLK

Row | SMILES | inhibition (Beta-secretase 1 [1]) | IC50 (Beta-secretase 1 [2]; read-out: IC50) [µM] | IC50 (Beta-secretase 1 [2])
1 | CCCN(CCC)C(=O)c1cccc(C(=O)N[C@@H](Cc2ccccc2)[C@@H](O)CC(=O)N[C@@H](CC(C)C)C(=O)N[C@@H](C)C(=O)N(C)[C@H](Cc2ccccc2)C(=O)O)c1 | 97.2% | 0.48 | –
2 | COC(=O)[C@H](CC(C)C)NC(=O)C[C@H](O)[C@H](Cc1ccccc1)NC(=O)[C@H](CCC(N)=O)N(C)C(=O)[C@@H](NC(=O)OCc1ccccc1)C(C)C | 75% | 4.46 | –
3 | COC(=O)[C@H](CC(C)C)NC(=O)C[C@H](O)[C@H](Cc1ccccc1)NC(=O)[C@H](CCC(N)=O)N(C)C(=O)OCc1ccccc1 | 24.2% | > 10 | –
4 | CC(C)C[C@H](NC(=O)C[C@H](O)[C@H](Cc1ccccc1)NC(=O)OC(C)(C)C)C(=O)N[C@@H](C)C(=O)N(C)[C@H](Cc1ccccc1)C(=O)O | 41.7% | > 10 | –
5 | CCCN(CCC)C(=O)c1cccc(C(=O)N[C@@H](Cc2ccccc2)[C@@H](O)CC(=O)N[C@@H](CC(C)C)C(=O)N[C@@H](C)C(=O)N(C)[C@H](Cc2ccccc2)C(=O)O)n1 | 35% | > 10 | –
6 | CC(C)C[C@H](NC(=O)C[C@H](O)[C@H](Cc1ccccc1)NC(=O)c1cccc(C(=O)N2CCCC2=O)c1)C(=O)N[C@@H](C)C(=O)N(C)[C@H](Cc1ccccc1)C(=O)O | 35.1% | > 10 | –
7 | CC(C)C[C@H](NC(=O)C[C@H](O)[C@H](Cc1ccccc1)NC(=O)c1cccc(C(=O)N2CCCC2=O)c1)C(=O)N[C@@H](C)C(=O)N(C)[C@H](Cc1ccccc1)C(=O)OCc1ccccc1 | 28.4% | > 10 | –
8 | CCCN(CCC)C(=O)c1cccc(C(=O)N[C@@H](Cc2ccccc2)[C@@H](O)CC(=O)N[C@@H](CC(C)C)C(=O)N[C@@H](C)C(=O)N(C)[C@H](Cc2ccccc2)C(=O)OCc2ccccc2)n1 | 28.7% | > 10 | –
9 | COC(=O)[C@@H](Cc1ccccc1)N(C)C(=O)[C@H](C)NC(=O)[C@H](CC(C)C)NC(=O)C[C@H](O)[C@H](Cc1ccccc1)NC(=O)[C@H](CCC(N)=O)N(C)C(=O)OCc1ccccc1 | 49.5% | > 10 | –
10 | CC(C)C[C@H](NC(=O)C[C@H](O)[C@H](Cc1ccccc1)NC(=O)[C@@H](N)Cc1cc2ccccc2[nH]1)C(=O)N[C@@H](C)C(=O)N(C)[C@H](Cc1ccccc1)C(=O)OCc1ccccc1 | 33.9% | > 10 | –
11 | CC(C)C[C@H](NC(=O)C[C@H](O)[C@H](Cc1ccccc1)NC(=O)[C@H](CCC(N)=O)N(C)C(=O)[C@@H](NC(=O)[C@H](C)O)C(C)C)C(=O)N[C@@H](C)C(=O)N(C)[C@H](Cc1ccccc1)C(=O)O (H-[Lac]V[NMeQ][Ahppa(3S,4S)]LA[dNMeF]-OH) | – | 0.078 | –
12 | COC(=O)[C@H](CC(C)C)NC(=O)C[C@H](O)[C@H](Cc1ccccc1)NC(=O)OC(C)(C)C | 25.8% | > 10 | –
13 | COC(=O)[C@H](C)NC(=O)[C@H](CC(C)C)NC(=O)C[C@H](O)[C@H](Cc1ccccc1)NC(=O)OC(C)(C)C | 11.6% | > 10 | –
14 | COC(=O)C[C@H](O)[C@H](Cc1ccccc1)NC(=O)[C@H](CCC(N)=O)N(C)C(=O)[C@@H](NC(=O)OCc1ccccc1)C(C)C | 22.1% | > 10 | –
15 | COC(=O)[C@@H](Cc1ccccc1)N(C)C(=O)[C@H](C)NC(=O)[C@H](CC(C)C)NC(=O)C[C@H](O)[C@H](Cc1ccccc1)NC(=O)[C@H](CCC(N)=O)N(C)C(=O)[C@@H](NC(=O)OCc1ccccc1)C(C)C | 97% | 0.87 | –
16 | COC(=O)C[C@H](O)[C@H](Cc1ccccc1)NC(=O)[C@H](CCC(N)=O)N(C)C(=O)OCc1ccccc1 | inactive | – | Not Active
17 | CC(C)C[C@H](NC(=O)C[C@H](O)[C@H](Cc1ccccc1)NC(=O)OC(C)(C)C)C(=O)N[C@@H](C)C(=O)N(C)[C@H](Cc1ccccc1)C(=O)OCc1ccccc1 | 4.44% | > 10 | –
18 | COC(=O)[C@H](C)NC(=O)[C@H](CC(C)C)NC(=O)C[C@H](O)[C@H](Cc1ccccc1)NC(=O)[C@H](CCC(N)=O)N(C)C(=O)OCc1ccccc1 | 17.5% | > 10 | –
19 | COC(=O)[C@H](C)NC(=O)[C@H](CC(C)C)NC(=O)C[C@H](O)[C@H](Cc1ccccc1)NC(=O)[C@H](CCC(N)=O)N(C)C(=O)[C@@H](NC(=O)OCc1ccccc1)C(C)C (Cbz-V[NMeQ][Ahppa(3S,4S)]LA-OMe) | 90.6% | 2.61 | –
20 | CCCN(CCC)C(=O)c1cccc(C(=O)N[C@@H](Cc2ccccc2)[C@@H](O)CC(=O)N[C@@H](CC(C)C)C(=O)N[C@@H](C)C(=O)N(C)[C@H](Cc2ccccc2)C(=O)OCc2ccccc2)c1 | 89.4% | 1.01 | –
